For data set [1], the system named is 60 human cancer cell lines. Put plainly: NCI-60 screen (SRB), whole panel. The class given is cell-based. The conditions noted are these: Homo sapiens; single dose 10 μM, mean over 60 cell lines; over 100% = cell death; read-out: Mean growth inhibition (GI) percentage.

For 12 molecules, inhibition and melting point results are on record in paper PMC9604400, “Synthesis, Anticancer and Antitubercular Properties of New Chalcones and Their Nitrogen-Containing Five-Membered Heterocyclic Hybrids Bearing Sulfonamide Moiety” (International Journal of Molecular Sciences, 2022).

As to `COc1ccc(C(=O)/C=C/c2cc(OC)c(OC)c(OC)c2)cc1S(=O)(=O)Nc1cccnc1` [Compound 16e, (E)-2-Methoxy-N-(pyridin-3-yl)-5-(3-(3,4,5-trimethoxyphenyl)acryloyl)benzenesulfonamide], the melting point (as a rule, the temperature, or range, at which the solid turns liquid) was 239 to 241 °C. For the same molecule, the inhibition (in general, the drop in the measured response relative to a control, in per cent) at 10 µM in data set [1] was 7.7%.
The molecule `COc1ccc(C(=O)/C=C/c2ccc3c(c2)OCO3)cc1S(=O)(=O)Nc1cccnc1` [Compound 16f, (E)-5-(3-(Benzo[d][1,3]dioxol-5-yl)acryloyl)-2-methoxy-N-(pyridin-3-yl)benzenesulfonamide] returned a melting point of 220 to 223 °C. The inhibition at 10 µM in data set [1] is 12.9%.
`COc1ccc(/C=C/C(=O)c2cc(S(N)(=O)=O)c(OC)cc2OC)cc1` [Compound 17d, (E)-2,4-Dimethoxy-5-(3-(4-methoxyphenyl)acryloyl)benzenesulfonamide] yielded a melting point of 215 to 218 °C. In addition, the inhibition at 10 µM in data set [1] was 30%.
`COc1cc(OC)c(S(N)(=O)=O)cc1C(=O)/C=C/c1cc(OC)c(OC)c(OC)c1` [Compound 17e, (E)-2,4-Dimethoxy-5-(3-(3,4,5-trimethoxyphenyl)acryloyl)benzenesulfonamide] showed a melting point of 253 to 256 °C. The inhibition at 10 µM in data set [1] came to 24.7%.
In the case of `COc1ccc(C(=O)/C=C/c2ccc(Cl)cc2)cc1S(=O)(=O)NNC(=O)c1ccncc1` [Compound 19b, (E)-5-(3-(4-Chlorophenyl)acryloyl)-N’-isonicotinoyl-2-methoxybenzenesulfonohydrazide], the melting point lay within 242 to 244 °C. Also, the inhibition at 10 µM in data set [1] is 0.96%.
In the case of `COc1ccc(C(=O)/C=C/c2cc(OC)c(OC)c(OC)c2)cc1S(=O)(=O)NNC(=O)c1ccncc1` [Compound 19e, (E)-N’-Isonicotinoyl-2-methoxy-5-(3-(3,4,5-trimethoxyphenyl)acryloyl)benzenesulfonohydrazide], the melting point fell in the range of 202 to 204 °C. Further, the inhibition at 10 µM in data set [1] worked out at 7.7%.
In the case of `COc1ccc(C(=O)/C=C/c2ccc3c(c2)OCO3)cc1S(=O)(=O)NNC(=O)c1ccncc1` [Compound 19f, (E)-5-(3-(Benzo[d][1,3]dioxol-5-yl)acryloyl)-N’-isonicotinoyl-2-methoxybenzenesulfonohydrazide], the melting point lay within 245 to 248 °C. Moreover, the inhibition at 10 µM in data set [1] was determined as 0.48%.
For `COc1cc(OC)c(S(=O)(=O)NNC(=O)c2ccncc2)cc1C(=O)/C=C/c1ccc(Cl)cc1` [Compound 20b, (E)-5-(3-(4-Chlorophenyl)acryloyl)-N’-isonicotinoyl-2,4-dimethoxybenzenesulfonohydrazide] the same measures were 196 to 198 °C and 20%.
In the same order, the values of `COc1cc(OC)c(S(=O)(=O)NNC(=O)c2ccncc2)cc1C(=O)/C=C/c1ccc(C)cc1` [Compound 20c, (E)-N’-Isonicotinoyl-2,4-dimethoxy-5-(3-(p-tolyl)acryloyl)benzenesulfonohydrazide] are 195 to 197 °C and 26.9%.
In the case of `COc1ccc(C2=NN(C=O)C(c3ccc(Cl)cc3)C2)cc1S(N)(=O)=O` (stereo not drawn) [Compound 22a, 5-(5-(4-Chlorophenyl)-1-formyl-4,5-dihydro-1H-pyrazol-3-yl)-2-methoxybenzenesulfonamide], the melting point fell in the range of 230 to 231 °C. For the same molecule, the inhibition at 10 µM in data set [1] amounted to 2.15%.
For `COc1ccc(C2=NN(C(N)=S)C(c3ccc(Cl)cc3)C2)cc1S(N)(=O)=O` (stereo not drawn) [Compound 27a, 5-(4-Chlorophenyl)-3-(4-methoxy-3-sulfamoylphenyl)-4,5-dihydro-1H-pyrazole-1-carbothioamide] the same measures were 206 to 208 °C and -0.54%.
Molecule `COc1cc(OC)c(S(N)(=O)=O)cc1C1=NN(C(N)=S)C(c2ccc(Cl)cc2)C1` (stereo not drawn) [Compound 27d, 5-(4-Chlorophenyl)-3-(2,4-dimethoxy-5-sulfamoylphenyl)-4,5-dihydro-1H-pyrazole-1-carbothioamide] returned a melting point of 223 to 225 °C. In addition, in data set [1], the inhibition at 10 µM came out at 2.34%.
